The values below come from ChEMBL document CHEMBL3832076, “Goodman and Gilman Ed. 10 | The Pharmaceutical Basis of Therapeutics| Table A-II-I: Pharmacokinetic Data” (2001).

Data set [1] can be described thus: Pharmacokinetic parameters for different drugs following single oral or intravenous administration in healthy subjects. Conditions: human, in vivo, 100 mg.
Data set [2] in a line: Pharmacokinetic parameters for different drugs following multiple oral or intravenous administration in healthy subjects. Type of data set: ADME, organism-based. As to conditions: human, in vivo, dosed compound id 68, dosed compound name IMIPRAMINE HYDROCHLORIDE, regimen Repeated dose, study dosing duration 4 weeks, tissue Plasma. Also noted: dose 200 mg/day, route oral.

Regarding `NC[C@H]1O[C@H](O[C@H]2[C@H](O)[C@@H](O[C@H]3O[C@H](CO)[C@@H](O)[C@H](N)[C@H]3O)[C@H](N)C[C@@H]2N)[C@H](N)C[C@@H]1O` [TOBRAMYCIN], the Tmax (commonly the time at which the peak concentration occurs) in data set [1] (im) was found to be 18 min. In addition, in data set [1] (inhaled or intranasal), the bioavailability (commonly dose-corrected exposure relative to a reference, in per cent) turned out to be 9%. Moreover, in data set [1] (iv), the Vd was 0.33 L/kg, the clearance stood at 0.98 mL/min/kg, the dose excreted was 90% and the half-life (usually the time needed for the level to fall by half in the phase considered) was 132 min. In addition, the Cmax (commonly the peak of the concentration-time curve) in data set [1] (po, Cmax) amounted to 4600 ng/mL.
Turning to `CN(C)CCCN1c2ccccc2CCc2ccccc21.Cl` [IMIPRAMINE HYDROCHLORIDE], in data set [1] (iv), the Vd worked out at 18 L/kg, the bioavailability was 42%, the dose excreted worked out at 2% and the half-life is 960 min. This compound also had a Cmax in data set [2] (po, 200 mg/day) of 200 ng/mL. Moreover, the Tmax in data set [2] (dose 200 mg/day, route oral) fell in the range of 2 to 6 h.
